Where two headings read alike, the source gives them in different places.
Tests used:
[1] = test system: amoeba (Acanthamoeba polypohaga) fed Legionella pneumophila (AfLp); type: cell-based; conditions: for Active concentration (ppm) required for complete kill (6 log reduction): Amoeba fed Legionella
[2] = test system: four bacterial species (Pseudomonas aeruginosa, Klebsiella pneumoniae, Bacillus subtilis, Staphylococcus aureus); assay: Preservation of kaolin slurry Kaolux HS (pH 6.6); type: cell-based, bacteria
Text: Two samples of kaolin slurries (Kaolux HS [particle size finer than 2 microns, 83.4%; 64.9% solids; pH 6.6] and Kaogloss [particle size finer than 2 microns, 90.7%; 70.1% solids; pH 6.3]), are obtained from Thiele Kaolin Company, Sandersville, Ga. Samples of the two slurries are inoculated with four bacterial species (described in Example 8), sampled to confirm the initial size of the bacterial community, and treated with selected concentrations of DBMAL. Samples for bacterial enumeration are collected after 24 hr and 48 hr incubation periods.

[3] = test system: Pseudomonas aeruginosa ATCC 10145; assay: Bactericidal efficacy in synthetic salts water pH 8.5; type: cell-based; conditions: for Dosage required for 3 log10 bacterial reduction (ppm, active): 37° C.; for long term bactericidal efficacy compared with DBNPA: after 48 hour incubation and rechallenge with P. aeruginosa cells
Experimental: A sterile synthetic salts water is prepared and inoculated with Pseudomonas aeruginosa ATCC 10145 at about 10^7 CFU/mL. The synthetic water is prepared to contain (in 1 liter deionized water) the following: CaCl2, 0.2203 g; MgSO4, 0.1847 g; and NaHCO3, 0.2033 g. The final pH of the synthetic cooling water is adjusted to 8.5. Aliquots of the cell suspension are then treated with biocides at selected dosage levels. The same contaminated water sample without biocide is used as control. After incubating at 37° C. for different time intervals, numbers of surviving bacteria are enumerated using a serial dilution method. After incubating for 24 hr, all cell suspensions are reinoculated with Pseudomonas aeruginosa ATCC 10145 at 10^6 CFU/mL. The efficacy results for […]

[4] = Stability against hydrolysis in buffered dilute solutions, HPLC
Free Legionella = type: cell-based, Legionella pneumophila
[5] = test system: bacteria isolated from field; assay: Efficacy in semi-synthetic metal working fluid; type: cell-based; conditions: room temperature, MWF
[6] = test system: mixed species consortium of bacteria; assay: Preservation of 10% CaCO3 suspensions; conditions: 10 ppm, pH 7.0, 8.0, 9.0
[7] = test system: bacteria in Cooling Tower water; assay: Efficacy in cooling tower water sample (about pH 8.3), serial dilution count; type: cell-based
bacterial consortium = assay: Preservation of calcium carbonate slurry Hydrocarb 90 (pH 8.7)
[8] = test system: bacteria isolated from Cooling Tower water; assay: Efficacy in sterile artificial Cooling Tower water (approx. pH 8.5); type: cell-based; conditions: 30° C.
[9] = 48 hr, pH 8.5, reinoculated after 24 hr

## NC(=O)C(Br)(Br)C(N)=O [DBMAL, 2,2-Dibromomalonamide]
[1]; 2 hours
  Active concentration (ppm) required for complete kill (6 log reduction): 12.5 ppm
[1]; 24 hours
  Active concentration (ppm) required for complete kill (6 log reduction): 3.12 ppm
[1]; corresponding time points (2 and 24 hours)
  level needed for 6 log kill of AfLp relative to that needed for free cells: about twice
[2]; 100 ppm to 150 ppm, 48 hr contact time
  change in numbers of viable bacteria (FIG. 3): decrease slightly
[2]; 175 ppm
  decrease in viable bacteria (FIG. 3): approximately one
[2]; concentrations higher than 175 ppm
  reduction in viable bacteria (FIG. 3): at least five
[3]; 1 hr, pH 8.5
  Dosage required for 3 log10 bacterial reduction (ppm, active): 14.8 ppm
[3]; 3 hr, pH 8.5
  Dosage required for 3 log10 bacterial reduction (ppm, active): 6.6 ppm
[3]; 24 hr, pH 8.5
  Dosage required for 3 log10 bacterial reduction (ppm, active): 6.6 ppm
[3]; [9]
  Dosage required for 3 log10 bacterial reduction (ppm, active): 6.6 ppm
[3]
  long term bactericidal efficacy compared with DBNPA: better than DBNPA
[4]; pH 6.9, T = 30 C., 48 hours
  Calculated Percent Reduction of the Active Ingredient: 0%
[4]; pH 6.9, T = 30 C., 72 hours
  Calculated Percent Reduction of the Active Ingredient: 0%
[4]; pH 8, T = −1 C., 48 hours
  Calculated Percent Reduction of the Active Ingredient: 0%
[4]; pH 8, T = −1 C., 72 hours
  Calculated Percent Reduction of the Active Ingredient: 0%
[4]; pH 8, T = −1 C., 96 hours
  Calculated Percent Reduction of the Active Ingredient: 0%
[4]; pH 9, T = −1 C., 48 hours
  Calculated Percent Reduction of the Active Ingredient: 21%
[4]; pH 9, T = −1 C., 72 hours
  Calculated Percent Reduction of the Active Ingredient: 12%
[4]; pH 9, T = −1 C., 96 hours
  Calculated Percent Reduction of the Active Ingredient: 24%
Free Legionella; 2 hours
  Active concentration (ppm) required for complete kill (6 log reduction): 6.25 ppm
Free Legionella; 24 hours
  Active concentration (ppm) required for complete kill (6 log reduction): 1.56 ppm
[5]; 2 h
  Minimum dosage (ppm, active) required for at least 3 log10 reduction in bacterial counts: 57 ppm
[5]; 4 h
  Minimum dosage (ppm, active) required for at least 3 log10 reduction in bacterial counts: 44 ppm
[5]; 24 h
  Minimum dosage (ppm, active) required for at least 3 log10 reduction in bacterial counts: 44 ppm
[5]; 48 h
  Minimum dosage (ppm, active) required for at least 3 log10 reduction in bacterial counts: 34 ppm
[5]; 72 h
  Minimum dosage (ppm, active) required for at least 3 log10 reduction in bacterial counts: 26 ppm
[5]; 96 h
  Minimum dosage (ppm, active) required for at least 3 log10 reduction in bacterial counts: 34 ppm
[6]; 2-hr contact
  bacterial counts (FIG. 5): increased inhibition of the bacteria at pH 9.0 versus pH 7.0 and 8.0
[6]; 24 hr contact, limit of detection
  bacterial counts (FIG. 5): 1.0 log10
[7]; 12.5 ppm active, 1 hr
  Bacterial log10 reduction after biocide addition: 1.2 log10
[7]; 12.5 ppm active, 48 hrs, re-inoculated
  Bacterial log10 reduction after biocide addition: 5.2 log10
[7]; 12.5 ppm active, 72 hrs, re-inoculated
  Bacterial log10 reduction after biocide addition: 1.2 log10
[7]; 12.5 ppm active, 96 hrs, re-inoculated
  Bacterial log10 reduction after biocide addition: 0.8 log10
[7]; 25 ppm active, 1 hr
  Bacterial log10 reduction after biocide addition: 4.3 log10
[7]; 25 ppm active, 3 hr
  Bacterial log10 reduction after biocide addition: >=5.7 log10
[7]; 25 ppm active, 24 hrs
  Bacterial log10 reduction after biocide addition: >=6.3 log10
[7]; 25 ppm active, 48 hrs, re-inoculated
  Bacterial log10 reduction after biocide addition: 6.0 log10
[7]; 25 ppm active, 72 hrs, re-inoculated
  Bacterial log10 reduction after biocide addition: 3.0 log10
[7]; 25 ppm active, 96 hrs, re-inoculated
  Bacterial log10 reduction after biocide addition: 3.2 log10
[7]; 50 ppm active, 1 hr
  Bacterial log10 reduction after biocide addition: >=5.3 log10
[7]; 50 ppm active, 3 hr
  Bacterial log10 reduction after biocide addition: 5.5 log10
[7]; 50 ppm active, 24 hrs
  Bacterial log10 reduction after biocide addition: >=6.3 log10
[7]; 50 ppm active, 48 hrs, re-inoculated
  Bacterial log10 reduction after biocide addition: >=6.3 log10
[7]; 50 ppm active, 72 hrs, re-inoculated
  Bacterial log10 reduction after biocide addition: 3.8 log10
[7]; 50 ppm active, 96 hrs, re-inoculated
  Bacterial log10 reduction after biocide addition: 4.2 log10
[7]; same active concentration of 12.5 ppm
  duration of effectiveness (>3 log10 killing) compared with DBNPA: one day more
[7]; same active concentration of 50 ppm and 25 ppm
  duration of effectiveness (>3 log10 killing) compared with DBNPA: two days more
Bacterial consortium; 5 ppm, 24-hr contact
  change in populations of bacteria (FIG. 6): decrease relatively little
Bacterial consortium; 10 ppm, 24-hr contact
  decrease in numbers of bacteria (FIG. 6): more than 2.5 orders of magnitude
Bacterial consortium; 20 ppm DBMAL, 24-hr contact time
  difference in numbers of bacteria versus samples with 50 ppm DBNPA (FIG. 7): approximately one-quarter
Bacterial consortium; single dose of 20 ppm, 24-hr contact time
  single dose efficacy comparison (FIG. 7): as effective as 50 ppm DBNPA or 16 ppm CMIT
[8]; 1 h
  Minimum biocide dosage (ppm, active) needed for at least 3 log10 bacterial reduction: 15.0 ppm
[8]; 3 h
  Minimum biocide dosage (ppm, active) needed for at least 3 log10 bacterial reduction: 11.0 ppm
[8]; 24 h
  Minimum biocide dosage (ppm, active) needed for at least 3 log10 bacterial reduction: 5.0 ppm
[8]; 48 h, reinoculated
  Minimum biocide dosage (ppm, active) needed for at least 3 log10 bacterial reduction: 5.0 ppm
[8]; 72 h, reinoculated
  Minimum biocide dosage (ppm, active) needed for at least 3 log10 bacterial reduction: 5.0 ppm
[8]; 96 h, reinoculated
  Minimum biocide dosage (ppm, active) needed for at least 3 log10 bacterial reduction: 15.0 ppm

## CCCCCCCCCC[N+](C)(C)CCCCCCCCCC.[Cl-] [DDAC, didecyl dimethyl ammonium chloride]
[1]; 2 hours
  Active concentration (ppm) required for complete kill (6 log reduction): 60 ppm
[1]; 24 hours
  Active concentration (ppm) required for complete kill (6 log reduction): 40 ppm
Free Legionella; 2 hours
  Active concentration (ppm) required for complete kill (6 log reduction): 20 ppm
Free Legionella; 24 hours
  Active concentration (ppm) required for complete kill (6 log reduction): 15 ppm

## O=CCCCC=O [Glutaraldehyde]
[1]; 2 hours
  Active concentration (ppm) required for complete kill (6 log reduction): 20 ppm
[1]; 24 hours
  Active concentration (ppm) required for complete kill (6 log reduction): 15 ppm
Free Legionella; 2 hours
  Active concentration (ppm) required for complete kill (6 log reduction): 10 ppm
Free Legionella; 24 hours
  Active concentration (ppm) required for complete kill (6 log reduction): 5 ppm
[8]; 1 h
  Minimum biocide dosage (ppm, active) needed for at least 3 log10 bacterial reduction: 36.0 ppm
[8]; 3 h
  Minimum biocide dosage (ppm, active) needed for at least 3 log10 bacterial reduction: 26.0 ppm
[8]; 24 h
  Minimum biocide dosage (ppm, active) needed for at least 3 log10 bacterial reduction: 26.0 ppm
[8]; 48 h, reinoculated
  Minimum biocide dosage (ppm, active) needed for at least 3 log10 bacterial reduction: 51.0 ppm
[8]; 72 h, reinoculated
  Minimum biocide dosage (ppm, active) needed for at least 3 log10 bacterial reduction: 51.0 ppm
[8]; 96 h, reinoculated
  Minimum biocide dosage (ppm, active) needed for at least 3 log10 bacterial reduction: 71.0 ppm

## CC1(C)C(=O)N(Cl)C(=O)N1Br [BCDMH, 1-Bromo-3-chloro-5,5-dimethylhydantoin]
[8]; 1 h
  Minimum biocide dosage (ppm, active) needed for at least 3 log10 bacterial reduction: 7.0 ppm
[8]; 3 h
  Minimum biocide dosage (ppm, active) needed for at least 3 log10 bacterial reduction: 26.0 ppm
[8]; 24 h
  Minimum biocide dosage (ppm, active) needed for at least 3 log10 bacterial reduction: >70.0 ppm
[8]; 48 h, reinoculated
  Minimum biocide dosage (ppm, active) needed for at least 3 log10 bacterial reduction: >70.0 ppm
[8]; 72 h, reinoculated
  Minimum biocide dosage (ppm, active) needed for at least 3 log10 bacterial reduction: >70.0 ppm
[8]; 96 h, reinoculated
  Minimum biocide dosage (ppm, active) needed for at least 3 log10 bacterial reduction: >70.0 ppm

## N#CC(Br)(Br)C(=O)NCCCO [DBCHA, 2,2-Dibromo-2-cyano-N-(3-hydroxypropyl)acetamide]
[3]; 1 hr, pH 8.5
  Dosage required for 3 log10 bacterial reduction (ppm, active): 4.4 ppm
[3]; 3 hr, pH 8.5
  Dosage required for 3 log10 bacterial reduction (ppm, active): 4.4 ppm
[3]; 24 hr, pH 8.5
  Dosage required for 3 log10 bacterial reduction (ppm, active): 9.9 ppm
[3]; [9]
  Dosage required for 3 log10 bacterial reduction (ppm, active): 33.3 ppm
[3]
  long term bactericidal efficacy compared with DBNPA: better long term efficacy than DBNPA

## CCN1CN(CC)CN(CC)C1 [Triazine, 1,3,5-triethylhexahydro-1,3,5-triazine]
[5]; 2 h
  Minimum dosage (ppm, active) required for at least 3 log10 reduction in bacterial counts: 1934 ppm
[5]; 4 h
  Minimum dosage (ppm, active) required for at least 3 log10 reduction in bacterial counts: 1487 ppm
[5]; 24 h
  Minimum dosage (ppm, active) required for at least 3 log10 reduction in bacterial counts: 1144 ppm
[5]; 48 h
  Minimum dosage (ppm, active) required for at least 3 log10 reduction in bacterial counts: 1144 ppm
[5]; 72 h
  Minimum dosage (ppm, active) required for at least 3 log10 reduction in bacterial counts: 1144 ppm
[5]; 96 h
  Minimum dosage (ppm, active) required for at least 3 log10 reduction in bacterial counts: 1144 ppm

## CCCCCCCC[N+](C)(C)CCCCCCCC.[Cl-] [Dioctyl dimethyl ammonium chloride]
[8]; 1 h
  Minimum biocide dosage (ppm, active) needed for at least 3 log10 bacterial reduction: 29.0 ppm
[8]; 3 h
  Minimum biocide dosage (ppm, active) needed for at least 3 log10 bacterial reduction: 29.0 ppm
[8]; 24 h
  Minimum biocide dosage (ppm, active) needed for at least 3 log10 bacterial reduction: 56.0 ppm
[8]; 48 h, reinoculated
  Minimum biocide dosage (ppm, active) needed for at least 3 log10 bacterial reduction: 56.0 ppm
[8]; 72 h, reinoculated
  Minimum biocide dosage (ppm, active) needed for at least 3 log10 bacterial reduction: 79.0 ppm
[8]; 96 h, reinoculated
  Minimum biocide dosage (ppm, active) needed for at least 3 log10 bacterial reduction: >79.0 ppm
